# Measurements reported in patent US20080044428A1, “Glycosylphosphatidylinositol Glycan Signalling Via Integrins Functioning as Glycan Specific Receptors” (THE WALTER AND ELIZA HALL INSTITUTE OF MEDICAL RES, priority 2004, published 2008).
# Experiments:
# [1] = test system: αMβ2-integrin, also known as CR3 or Mac-1; test: FACS binding of fluoresceinated conjugates to CHO cells transfected with αMβ2-integrin; conditions: FACS analysis, CHO-Mac1 cells
# From the text: (§1) Sham conjugation procedures were also followed substituting cysteine for glycan.
# [2] = test system: sham-transfected CHO cells (CHO-Neo); test: FACS binding of fluoresceinated conjugates to sham-transfected CHO cells; conditions: FACS analysis
# From the text: as §1
# αMβ2-integrin, also known as CR3 or Mac-1, sequence (P05107 23-769, other chains not shown): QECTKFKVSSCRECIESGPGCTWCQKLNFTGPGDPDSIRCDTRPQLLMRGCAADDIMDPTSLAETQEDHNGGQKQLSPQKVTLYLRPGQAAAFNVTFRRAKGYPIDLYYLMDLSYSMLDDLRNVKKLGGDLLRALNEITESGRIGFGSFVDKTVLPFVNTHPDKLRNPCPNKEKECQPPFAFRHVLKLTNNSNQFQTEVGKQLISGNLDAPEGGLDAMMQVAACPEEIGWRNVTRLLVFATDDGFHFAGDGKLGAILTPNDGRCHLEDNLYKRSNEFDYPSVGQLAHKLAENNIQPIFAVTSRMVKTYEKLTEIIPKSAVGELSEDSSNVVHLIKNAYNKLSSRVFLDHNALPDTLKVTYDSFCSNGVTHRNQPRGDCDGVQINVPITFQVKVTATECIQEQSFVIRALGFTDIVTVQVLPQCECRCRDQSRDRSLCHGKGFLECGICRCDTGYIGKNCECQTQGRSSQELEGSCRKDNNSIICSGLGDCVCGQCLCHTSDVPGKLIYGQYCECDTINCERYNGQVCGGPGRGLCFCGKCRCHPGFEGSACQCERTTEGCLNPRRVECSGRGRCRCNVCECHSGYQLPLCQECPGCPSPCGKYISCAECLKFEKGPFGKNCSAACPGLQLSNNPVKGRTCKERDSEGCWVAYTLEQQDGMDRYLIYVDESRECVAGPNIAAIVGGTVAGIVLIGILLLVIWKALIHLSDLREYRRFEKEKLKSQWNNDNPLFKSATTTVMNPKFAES
substance,measurement,setting,value
"fluoresceinated BSA-cysteine: sham conjugate of BSA carrier protein substituting cysteine for glycan, fluoresceinated",binding to CHO cells transfected with αMβ2-integrin,[1],0.69%
same,binding to sham-transfected CHO cells (CHO-Neo),[2],0.4%
